Results taken from patent publication US20250115597A1, “TYK2 INHIBITORS AND COMPOSITIONS AND METHODS THEREOF” (LYNK PHARMACEUTICALS CO. LTD., priority 2021, published 2025).

Legend:
[1] = molecular target: T1, Ba/F3-FL-TYK2-P760L cells (Homo sapiens, UniProt P29597, P760L, cells depend on it); experiment: Anti-proliferative assay, Ba/F3-FL-TYK2-P760L cells (Cell-Titer Glo); assay type: cell-based; conditions: 72 h, read-out: BaF3-FL-T2P760L IC50
T1 construct: BaF3-FL-T2P760L (nM)
Procedure, shortened: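 Compound exposure ran 72 h at 37 °C in 5% CO2 across nine 3-fold concentrations from a 20 μM top dose, added 24 h after seeding 2000 cells/well.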

TYK2-JH2 domain = molecular target: T2, TYK2-JH2 domain (Homo sapiens, UniProt P29597); experiment: Binding activity test for JH2 domain of TYK2 (Tb-antibody/tracer FRET); conditions: for JAK1/TYK2 selectivity: ratio JAK1-JH2 IC50 / TYK2-JH2 IC50
T2 construct: IC50 on JH2 domain activity (nM)
Experimental: (§1) Binding Activity Test for […] Domain of JAK1 and TYK2 The compounds are prepared in DMSO for 200× top dose, then serial dilute it with 27-fold for 3 more points. Add 8 μL/well in echo source plate, echo will add 75 nL/well with 3-fold serial dilution for 11 points in assay plate. 75 nL DMSO for high control and low control. […] For low control, add 5 μL/well assay buffer. And then spin down at 1000 rpm and centrifuge for 30 seconds. After enzyme system prepared, add 5 μL of Tb-antibody solution into each wells of assay plate. Spin down at 1000 rpm and centrifuge for 30 sec. After Tb-antibody added, also add 5 μL of tracer into the assay plate. Spin down at 1000 rpm and centrifuge for 30 sec. Incubate for 60 mins at 25° C. firstly and then continue to incubate the plate at 4° C. overnight. Read by envision in FRET mode. The Luminescence value was recorded by a multi-label reader Envision (PerkinElmer).

JAK1-JH2 domain = molecular target: T3, JAK1-JH2 domain (Homo sapiens, UniProt P23458); experiment: Binding activity test for JH2 domain of JAK1 (Tb-antibody/tracer FRET)
T3 construct: IC50 on JH2 domain activity (nM)
Experimental: as §1

T3 sequence (P23458 583-855 limits assumed): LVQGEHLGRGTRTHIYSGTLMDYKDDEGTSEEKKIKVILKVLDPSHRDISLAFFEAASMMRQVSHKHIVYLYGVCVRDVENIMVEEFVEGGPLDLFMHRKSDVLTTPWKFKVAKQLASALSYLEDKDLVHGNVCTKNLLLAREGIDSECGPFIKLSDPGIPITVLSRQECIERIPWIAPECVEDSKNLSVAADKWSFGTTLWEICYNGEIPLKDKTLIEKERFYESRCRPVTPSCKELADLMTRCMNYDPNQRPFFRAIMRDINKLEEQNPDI
T2 sequence (P29597 589-875 limits assumed): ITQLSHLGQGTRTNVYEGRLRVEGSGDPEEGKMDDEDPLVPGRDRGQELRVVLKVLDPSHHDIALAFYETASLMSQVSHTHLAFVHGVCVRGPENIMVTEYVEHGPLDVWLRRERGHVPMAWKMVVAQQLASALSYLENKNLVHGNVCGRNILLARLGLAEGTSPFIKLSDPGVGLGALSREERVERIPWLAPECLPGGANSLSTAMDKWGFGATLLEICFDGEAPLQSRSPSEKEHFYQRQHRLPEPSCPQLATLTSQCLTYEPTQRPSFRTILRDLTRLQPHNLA
T1 sequence (P29597 whole entry P760L): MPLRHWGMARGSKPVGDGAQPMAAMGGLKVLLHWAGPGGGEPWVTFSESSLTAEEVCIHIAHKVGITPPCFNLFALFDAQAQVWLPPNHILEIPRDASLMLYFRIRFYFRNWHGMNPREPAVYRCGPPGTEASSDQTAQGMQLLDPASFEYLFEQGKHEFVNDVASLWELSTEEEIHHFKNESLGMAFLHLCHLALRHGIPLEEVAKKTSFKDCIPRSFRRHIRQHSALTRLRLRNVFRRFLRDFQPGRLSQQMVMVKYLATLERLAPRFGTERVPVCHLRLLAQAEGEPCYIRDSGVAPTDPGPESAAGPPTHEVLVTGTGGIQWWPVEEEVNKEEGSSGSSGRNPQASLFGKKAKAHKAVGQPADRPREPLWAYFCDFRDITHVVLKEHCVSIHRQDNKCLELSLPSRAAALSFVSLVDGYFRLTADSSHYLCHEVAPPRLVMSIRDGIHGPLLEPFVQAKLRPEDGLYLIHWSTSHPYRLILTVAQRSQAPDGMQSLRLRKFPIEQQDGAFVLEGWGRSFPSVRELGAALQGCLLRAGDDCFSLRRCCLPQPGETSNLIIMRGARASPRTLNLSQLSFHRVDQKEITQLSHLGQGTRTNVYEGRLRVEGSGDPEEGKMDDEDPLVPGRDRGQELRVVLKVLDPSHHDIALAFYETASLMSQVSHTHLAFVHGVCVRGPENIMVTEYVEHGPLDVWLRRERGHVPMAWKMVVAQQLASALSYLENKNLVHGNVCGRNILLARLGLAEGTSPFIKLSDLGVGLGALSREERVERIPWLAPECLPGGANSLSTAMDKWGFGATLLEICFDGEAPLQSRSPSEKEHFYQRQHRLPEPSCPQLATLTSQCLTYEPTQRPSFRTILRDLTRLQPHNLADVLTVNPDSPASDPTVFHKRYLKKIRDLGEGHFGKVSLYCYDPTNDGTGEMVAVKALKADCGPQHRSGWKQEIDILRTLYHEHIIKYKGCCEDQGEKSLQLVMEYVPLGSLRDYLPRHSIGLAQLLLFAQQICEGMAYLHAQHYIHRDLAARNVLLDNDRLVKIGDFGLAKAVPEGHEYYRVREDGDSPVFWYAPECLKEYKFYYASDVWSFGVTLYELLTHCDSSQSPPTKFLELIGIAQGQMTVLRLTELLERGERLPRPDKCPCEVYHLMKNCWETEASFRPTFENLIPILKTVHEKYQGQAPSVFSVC

Row | Compound | GI50 [1] [nM] | IC50 (TYK2-JH2 domain) [nM] | JAK1/TYK2 selectivity (TYK2-JH2 domain) | IC50 (JAK1-JH2 domain) [nM]
1 | [2H]C([2H])([2H])NC(=O)c1cnc(Nc2ccc(F)cn2)cc1Nc1ncc2cnn(C([2H])([2H])[2H])c2c1OC [Example 277, 6-((5-Fluoropyridin-2-yl)amino)-4-((7-methoxy-1-(methyl-d3)-1H-pyrazolo[4,3-c]pyridin-6-yl)amino)-N-(methyl-d3)nicotinamide] | 60.2 | 1.11 | 55.5 | 61.4
2 | [2H]C([2H])([2H])NC(=O)c1cnc(NC(=O)C2CC2)cc1Nc1ccn2nccc2c1OC [Example 258, 6-(Cyclopropanecarboxamido)-4-((4-methoxypyrazolo[1,5-a]pyridin-5-yl)amino)-N-(methyl-d3)nicotinamide] | 205 | 0.834 | 17.9 | 14.9
3 | CCn1ccc2c(c(Nc3cc(NC(=O)C4CC4)ncc3C(=O)NC)cn2C2CC2)c1=O [Example 245, 6-(Cyclopropanecarboxamido)-4-((1-cyclopropyl-5-ethyl-4-oxo-4,5-dihydro-1H-pyrrolo[3,2-c]pyridin-3-yl)amino)-N-methylnicotinamide] | 56.4 | 0.157 | 27.7 | 4.34
4 | [2H]C([2H])([2H])NC(=O)c1cnc(Nc2ccn(C)n2)cc1Nc1ccn2ncc(C)c2c1OC [Example 255, 4-((4-Methoxy-3-methylpyrazolo[1,5-a]pyridin-5-yl)amino)-N-(methyl-d3)-6-((1-methyl-1H-pyrazol-3-yl)amino)nicotinamide] | 116 | 0.323 | 13.7 | 4.42
5 | [2H]C([2H])([2H])NC(=O)c1cnc(NC(=O)C2CC2)cc1Nc1ccn2ncc(OC)c2c1OC [Example 278, 6-(Cyclopropanecarboxamido)-4-((3,4-dimethoxypyrazolo[1,5-a]pyridin-5-yl)amino)-N-(methyl-d3)nicotinamide] | 130 | 0.385 | 25.0 | 9.63
6 | [2H]C([2H])([2H])NC(=O)c1cnc(NC(=O)C2CC2)cc1Nc1ccn2ncc(C(C)C#N)c2c1OC (single isomer, unassigned) [Example 251B, (S*)-4-((3-(1-cyanoethyl)-4-methoxypyrazolo[1,5-a]pyridin-5-yl)amino)-6-(cyclopropanecarboxamido)-N-(methyl-d3)nicotinamide] | 103 | 0.266 | 17.30 | 4.6
7 | [2H]C([2H])([2H])NC(=O)c1cnc(NC(C)=O)cc1Nc1ccc2cnn(CC)c2c1OC [Example 230, 6-Acetamido-4-((1-ethyl-7-methoxy-1H-indazol-6-yl)amino)-N-(methyl-d3)nicotinamide] | 478 | 3.01 | 19.5 | 58.7
8 | [2H]C([2H])([2H])NC(=O)c1cnc(NC(=O)CC)cc1Nc1ccc2cnn(CC)c2c1OC [Example 229, 4-((1-Ethyl-7-methoxy-1H-indazol-6-yl)amino)-N-(methyl-d3)-6-propionamidonicotinamide] | 564 | 1.68 | 62.5 | 105
9 | [2H]C([2H])([2H])NC(=O)c1cnc(Nc2ccn(C)n2)cc1Nc1ccn2ncc(C#N)c2c1OC [Example 240, 4-((3-Cyano-4-methoxypyrazolo[1,5-a]pyridin-5-yl)amino)-N-(methyl-d3)-6-((1-methyl-1H-pyrazol-3-yl)amino)nicotinamide] | 70.7 | 0.26 | 19.5 | 5.07
10 | [2H]C([2H])([2H])NC(=O)c1cnc(NC(=O)C2CC2)cc1Nc1ncc2cnn(C3CC3)c2c1OC [Example 267, 6-(Cyclopropanecarboxamido)-4-((1-cyclopropyl-7-methoxy-1H-pyrazolo[4,3-c]pyridin-6-yl)amino)-N-(methyl-d3)nicotinamide] | 227 | 0.181 | 51.1 | 9.25
11 | [2H]C([2H])([2H])NC(=O)c1cnc(NC(=O)C2CC2)cc1Nc1ccn2ncc(CC(N)=O)c2c1OC [Example 243, 4-((3-(2-Amino-2-oxoethyl)-4-methoxypyrazolo[1,5-a]pyridin-5-yl)amino)-6-(cyclopropanecarboxamido)-N-(methyl-d3)nicotinamide] | > 5000 | 3.45 | 37.7 | 130
12 | [2H]C([2H])([2H])NC(=O)c1cnc(NC(=O)C2CC2)cc1Nc1ccc2cnn(C(C)C#N)c2c1OC (single isomer, unassigned) [Example 249B, (S*)-4-((1-(1-cyanoethyl)-7-methoxy-1H-indazol-6-yl)amino)-6-(cyclopropanecarboxamido)-N-(methyl-d3)nicotinamide] | 342 | 0.738 | 39.25 | 29
13 | [2H]C([2H])([2H])NC(=O)c1cnc(NC(=O)C2CC2)cc1Nc1ncc2cnn(CC(C)(F)F)c2c1OC [Example 276, 6-(Cyclopropanecarboxamido)-4-((1-(2,2-difluoropropyl)-7-methoxy-1H-pyrazolo[4,3-c]pyridin-6-yl)amino)-N-(methyl-d3)nicotinamide] | 88.2 | 0.253 | 436.1 | 110
14 | [2H]C([2H])([2H])NC(=O)c1cnc(NC(=O)C2CC2)cc1Nc1ncc2ncn(CC)c2c1OC [Example 260, 6-(Cyclopropanecarboxamido)-4-((1-ethyl-7-methoxy-1H-imidazo[4,5-c]pyridin-6-yl)amino)-N-(methyl-d3)nicotinamide] | 143 | 0.124 | 78.9 | 9.78
15 | [2H]C([2H])([2H])NC(=O)c1cnc(NC(=O)C2CC2)cc1Nc1ccn2ncc(C3CC3)c2c1OC [Example 250, 6-(Cyclopropanecarboxamido)-4-((3-cyclopropyl-4-methoxypyrazolo[1,5-a]pyridin-5-yl)amino)-N-(methyl-d3)nicotinamide] | 160 | 0.233 | 30.19 | 7.04
16 | [2H]C([2H])([2H])NC(=O)c1cnc(NC(=O)C2CCC2)cc1Nc1ccc2cnn(CC)c2c1OC [Example 242, 6-(Cyclobutanecarboxamido)-4-((1-ethyl-7-methoxy-1H-indazol-6-yl)amino)-N-(methyl-d3)nicotinamide] | 404 | 1.18 | 38.5 | 45.3
17 | [2H]C([2H])([2H])NC(=O)c1cnc(Nc2ccc(N3CCOCC3)cn2)cc1Nc1ccc2cnn(CC)c2c1OC [Example 273, 4-((1-Ethyl-7-methoxy-1H-indazol-6-yl)amino)-N-(methyl-d3)-6-((5-morpholinopyridin-2-yl)amino)nicotinamide] | 28.4 | 0.166 | 16.1 | 2.68
18 | [2H]C([2H])([2H])NC(=O)c1cnc(NC(=O)C2CC2)cc1Nc1ccn2ncc(C(C)C#N)c2c1OC (stereo not drawn) [Example 251, 4-((3-(1-Cyanoethyl)-4-methoxypyrazolo[1,5-a]pyridin-5-yl)amino)-6-(cyclopropanecarboxamido)-N-(methyl-d3)nicotinamide] | 117 | 0.304 | 18.32 | 5.57
